Reference: patent publication US20220152031A1, “PYRIDAZINONES AND METHODS OF USE THEREOF” (Goldfinch Bio, Inc., priority 2019, published 2022)

Molecular target: T1, TRPC5 (Homo sapiens, UniProt Q9UL62)
T1 construct: expressed in transfected cells
T1 sequence (Q9UL62 1-973): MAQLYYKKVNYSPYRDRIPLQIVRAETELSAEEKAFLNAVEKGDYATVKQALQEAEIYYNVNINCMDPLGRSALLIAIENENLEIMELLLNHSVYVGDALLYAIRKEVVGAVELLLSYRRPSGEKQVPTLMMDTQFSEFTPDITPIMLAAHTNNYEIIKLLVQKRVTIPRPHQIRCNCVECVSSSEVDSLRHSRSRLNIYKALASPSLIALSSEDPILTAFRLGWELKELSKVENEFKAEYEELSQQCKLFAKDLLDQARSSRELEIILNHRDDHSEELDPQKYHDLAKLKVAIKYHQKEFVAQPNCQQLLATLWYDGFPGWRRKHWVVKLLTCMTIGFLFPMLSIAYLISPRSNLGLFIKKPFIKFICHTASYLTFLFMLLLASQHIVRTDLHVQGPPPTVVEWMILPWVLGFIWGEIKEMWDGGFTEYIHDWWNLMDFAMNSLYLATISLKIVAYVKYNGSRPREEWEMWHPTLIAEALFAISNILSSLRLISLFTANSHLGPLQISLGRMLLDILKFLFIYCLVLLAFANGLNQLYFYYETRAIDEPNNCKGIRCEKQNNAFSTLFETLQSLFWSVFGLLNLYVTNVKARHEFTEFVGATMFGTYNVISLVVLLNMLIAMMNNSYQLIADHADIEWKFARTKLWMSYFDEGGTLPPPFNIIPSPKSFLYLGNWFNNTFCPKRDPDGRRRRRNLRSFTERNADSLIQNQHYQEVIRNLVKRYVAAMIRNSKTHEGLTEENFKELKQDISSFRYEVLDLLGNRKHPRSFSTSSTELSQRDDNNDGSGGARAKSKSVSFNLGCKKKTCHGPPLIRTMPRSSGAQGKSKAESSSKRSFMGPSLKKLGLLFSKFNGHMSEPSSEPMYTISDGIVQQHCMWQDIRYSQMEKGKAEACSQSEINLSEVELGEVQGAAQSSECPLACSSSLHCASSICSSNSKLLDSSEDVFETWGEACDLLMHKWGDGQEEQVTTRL
Assay: TRPC5 activity assay (FLIPR calcium fluorescence, HEK-TREx hTRPC5 cells)
Type: cell-based
Conditions: Table 6, HEK-TREx hTRPC5; read-out: hTRPC5-FLIPR IC50
Experimental: ICLN-1633 cells (HEK-TREx hTRPC5) expressing TRPC5 were generated as follows. Commercially available HekTrex-293 cells were seeded at 0.7×10^6 cells/well in a 1×6-well plate 24 hrs prior to transfection using 2 mL cell growth media containing no antibiotics (lx DMEM/high glucose (Hyclone #SH30022.02); 10% fetal bovine serum (Sigma) 2 mM sodium pyruvate, 10 mM HEPES). […] On day 2, 2 μg of plasmid DNA plus 6 μl of Xtreme-GENE HP reagent in Optimem (200 μl total volume) was prepared and incubated for 15 min at room temperature. This plasmid solution was then gently overlayed dropwise onto each well and the plate was gently swirled to mix complex with the media for approximately 30 seconds. Transfected cells were incubated at 37° C. in a 10% CO2 incubator for 24 hrs. The transfected cells were harvested and transferred into 2×150 mm dishes containing cell growth media with no antibiotics at 37° C.
The next day selection was initiated to generate a stable pool by adding cell growth media containing 150 μg/mL Hygromycin and 5 μg/mL Blasticidin and cells were allowed to grow. Media with the selection agent was changed every 1-2 days as needed to remove dead cells. After 7 days, the hygromycin concentration was reduced to 75 μg/mL and cells growth was allowed to continue.
Single clones were selected as follows. The stable pool was diluted to 10 cells/mL and seeded (100 μl/well) into 24×96 well plates (˜1 cell/well) and allowed to grow for 7 days in cell growth media. Fresh media (100 μl) was added and the cells allowed to grow for another 1-2 weeks and then stored frozen or used immediately.
10-point dose response curves were generated using the Echo-550 acoustic dispenser. Compound source plates were made by serially diluting compound stocks to create 10 mM, 1 mM, and 0.1 mM solutions in DMSO into Echo certified LDV plates. The Echo then serially spotted 100% DMSO stock solutions into source dose response plates to generate a 4-fold dilution scheme. 100% DMSO was added to the spotted dose response plates to bring the final volume to 5 μl. 300 nl of the dose response stock plate was then spotted into pre-incubation and stimulation assay plates. 50 μl of pre-incubation buffer and 100 μl of stimulation buffer was then added to the plates resulting in a final assay test concentration range of 30 μM to 0.0001 μM with a final DMSO concentration of 0.3%.
Human ICLN-1633 cells expressing were plated onto 384 well, black PDL-coated microplates and maintained in TRPC5 growth media the day prior to use for experiments. TRPC5 expression was induced by the application of 1 μg/mL tetracycline at the time of plating. […] Cells are incubated at room temperature, protected from light, for 60-90 minutes. After the incubation period, the dye is removed and replaced with 10 μl of EBSS. Cell, pre-incubation and stimulation plates are loaded onto the FLIPR-II and the assay is initiated. The FLIPR measures a 10 second baseline and then adds 10 μl of 2× compounds (or controls). Changes in fluorescence are monitored for an additional 5 minutes. After the 5 minute pre-incubation, 20 μl of 2× Riluzole (with 1× compound or controls) is added to the cell plate. The final Riluzole stimulation concentration in the assay is 30 μM. After the Riluzole addition, changes in fluorescence are monitored for an additional 5 minutes.
Compound modulation of TRPC5 calcium response was determined as follows. After the Englerin A, fluorescence was monitored for a 5-minute period. The maximum relative fluorescence response (minus the control response of 1 μM of an internal control compound known to maximally block TRPC5 calcium response, the “REF INHIB” in the formula below) was captured and exported from the FLIPR.
Compound effect is calculated as % inhibition using the following formula: […]
wherein “RFU” is the relative fluorescent units.

IC50	SMILES
0.01 to 1000 nM	CCc1ncccc1[C@H](C)N1CCN(c2cn[nH]c(=O)c2Cl)CC1 [LY, 4-chloro-5-[4-[(1S)-1-(2-ethylpyridin-3-yl)ethyl]piperazin-1-yl]-2,3-dihydropyridazin-3-one]
0.01 to 1000 nM	CCc1ncccc1N(CC)C1CCN(c2cn[nH]c(=O)c2Cl)CC1 [LW, 4-chloro-5-[4-[ethyl(2-ethylpyridin-3-yl)amino]piperidin-1-yl]-2,3-dihydropyridazin-3-one]
0.01 to 1000 nM	CC(c1ccc(F)cc1C(F)(F)F)N1CCN(c2cn[nH]c(=O)c2Cl)CC1=O (single isomer, unassigned) [MF]

Same assay, conditions: Table 7, HEK-TREx hTRPC5; read-out: TRPC5-FLIPR IC50

IC50	SMILES
0.01 to 1000 nM	CN1CCN(Cc2nn(Cc3ccccc3C(F)F)c3c2CN(c2cn[nH]c(=O)c2Cl)CC3)CC1 [OU, 4-Chloro-5-(1-[[2-(difluoromethyl)phenyl]methyl]-3-[(4-methylpiperazin-1-yl)methyl]-1H,4H,5H,6H,7H-pyrazolo[4,3-c]pyridin-5-yl)-2,3-dihydropyridazin-3-one]
0.01 to 1000 nM	C[C@@H]1Cc2c(nnn2[C@H](C)c2ccccc2C(F)(F)F)CN1c1cn[nH]c(=O)c1Cl [MX, 4-chloro-5-[(6R)-6-methyl-1-[(1R)-1-[2-(trifluoromethyl)phenyl]ethyl]-1H,4H,5H,6H,7H-[1,2,3]triazolo[4,5-c]pyridin-5-yl]-2,3-dihydropyridazin-3-one]
0.01 to 1000 nM	CN1CCN(C(=O)c2nn(Cc3ccccc3C(F)F)c3c2CN(c2cn[nH]c(=O)c2Cl)CC3)CC1 [OM]

Further lines, the molecule ahead of its results:

SMILES	IC50
CN(C)C(=O)c1nc2c(n1Cc1ccccc1C(F)(F)F)CCN(c1cn[nH]c(=O)c1Cl)C2 [PW]	0.01 to 1000 nM
NC(=O)c1nn(Cc2ccccc2C(F)(F)F)c2c1CN(c1cn[nH]c(=O)c1Cl)CC2 [OP, 5-(5-Chloro-6-oxo-1,6-dihydropyridazin-4-yl)-1-[[2-(trifluoromethyl)phenyl]methyl]-1H,4H,5H,6H,7H-pyrazolo[4,3-c]pyridine-3-carboxamide]	0.01 to 1000 nM
CN(c1ncc2c(n1)CN(c1cn[nH]c(=O)c1Cl)C2)c1ccccc1C(F)(F)F [QM]	0.01 to 1000 nM
